According to ChEMBL document CHEMBL1255361, “Differential antibiotic susceptibility of Mycobacterium abscessus variants in biofilms and macrophages compared to that of planktonic bacteria” (2008):
Values after ≈ are worked out from the molar mass of the structure shown. Active and inactive are the calls of the source. The calls are words filed in the database; no cut-off is given here.

Key:
[1] = test system: Mycobacteroides abscessus; experiment: Antimicrobial activity against Mycobacterium abscessus 390R after 96 hrs; type: functional
[2] = test system: Mycobacteroides abscessus; experiment: Antimicrobial activity against Mycobacterium abscessus 390S assessed as inhibition of planktonic cell growth in depleted medium; type: functional
[3] = test system: Mycobacteroides abscessus; experiment: Antimicrobial activity against Mycobacterium abscessus 390S assessed as inhibition of resuspended biofilm formation in replete medium; type: functional
[4] = test system: Mycobacteroides abscessus; experiment: Antimicrobial activity against Mycobacterium abscessus 390S assessed as inhibition of planktonic cell growth in replete medium; type: functional
[5] = test system: Mycobacteroides abscessus; experiment: Bacteriostatic activity against Mycobacterium abscessus 390V infected in human monocyte-derived macrophage at 10 times MIC; type: functional, organism-based
[6] = test system: Mycobacteroides abscessus; experiment: Antimicrobial activity against Mycobacterium abscessus 390S assessed as inhibition of biofilm formation at 64 ug/ml after 24 hrs; type: functional
[7] = test system: Mycobacteroides abscessus; experiment: Antimicrobial activity against Mycobacterium abscessus 390S; type: functional
[8] = test system: Mycobacteroides abscessus; experiment: Antimicrobial activity against Mycobacterium abscessus 390V after 96 hrs; type: functional
[9] = test system: Mycobacteroides abscessus; experiment: Bacteriostatic activity against Mycobacterium abscessus 390S assessed as inhibition of planktonic cell growth up to 1024 ug/ml after 24 hrs; type: functional, organism-based
[10] = test system: Mycolicibacterium fortuitum; experiment: Antimicrobial activity against Mycobacterium fortuitum; type: functional
[11] = test system: Mycobacteroides abscessus; experiment: Bacteriostatic activity against Mycobacterium abscessus 390V infected in human monocyte-derived macrophage assessed as inhibition of planktonic cell growth at 4 ug/ml treated 24 hrs postinfection; type: functional, organism-based
[12] = test system: Mycobacteroides abscessus; experiment: Antimicrobial activity against Mycobacterium abscessus 390S assessed as inhibition of biofilm formation up to 128 ug/ml treated during lag-phase measured after 24 hrs; type: functional, organism-based
[13] = test system: Mycobacteroides abscessus; experiment: Antimicrobial activity against Mycobacterium abscessus 390S assessed as inhibition of biofilm formation up to 512 ug/ml after 24 hrs; type: functional
[14] = test system: Mycobacteroides abscessus; experiment: Bacteriostatic activity against Mycobacterium abscessus 390R infected in human monocyte-derived macrophage assessed as inhibition of planktonic cell growth at 4 ug/ml treated 24 hrs postinfection; type: functional, organism-based
[15] = test system: Mycobacteroides abscessus; experiment: Bacteriostatic activity against Mycobacterium abscessus 390S infected in human monocyte-derived macrophage assessed as inhibition of planktonic cell growth at 4 ug/ml treated 24 hrs postinfection; type: functional, organism-based
[16] = test system: Mycobacteroides abscessus; experiment: Antimicrobial activity against Mycobacterium abscessus 390S after 96 hrs; type: functional
[17] = test system: Mycobacteroides abscessus; experiment: Antimicrobial activity against Mycobacterium abscessus 390S assessed as inhibition of biofilm formation up to 128 ug/ml treated during mid log-phase; type: functional
[18] = test system: Mycobacteroides abscessus; experiment: Antimicrobial activity against Mycobacterium abscessus 390S infected in human monocyte-derived macrophage assessed as reduction in viable bacteria count at 10 times MIC by […]; type: functional, organism-based

| MIC [1] [µg/mL] | MIC [8] [µg/mL] | MIC [10] [µg/mL] | MIC [16] [µg/mL] | SMILES | MBC [2] [µg/mL] | MBC [3] [µg/mL] | MBC [4] [µg/mL] | Activity [5] | log10cfu [6] | MBC [7] [µg/mL] | Activity [9] | Activity [11] | Activity [12] | log10cfu [13] | Activity [14] | Activity [15] | log10cfu [17] | Activity [18] |
| --- | --- | --- | --- | --- | --- | --- | --- | --- | --- | --- | --- | --- | --- | --- | --- | --- | --- | --- |
| 2 (≈ 3.42 µM) |  |  |  | NCC[C@H](O)C(=O)N[C@@H]1C[C@H](N)[C@@H](O[C@H]2O[C@H](CN)[C@@H](O)[C@H](O)[C@H]2O)[C@H](O)[C@H]1O[C@H]1O[C@H](CO)[C@@H](O)[C@H](N)[C@H]1O [AMIKACIN] | 128 (≈ 219 µM) | 64 (≈ 109 µM) | 32 (≈ 54.6 µM) | Active | 1.1 | 64 (≈ 109 µM) |  |  |  |  |  |  |  |  |
|  | 8 (≈ 18.7 µM) | 6.25 (≈ 14.6 µM) |  | CO[C@@]1(NC(=O)Cc2cccs2)C(=O)N2C(C(=O)O)=C(COC(N)=O)CS[C@@H]21 [CEFOXITIN] |  |  |  | Active |  |  | Active |  |  |  |  |  |  |  |
|  |  |  | 0.25 (≈ 0.334 µM) | CC[C@H]1OC(=O)[C@H](C)[C@@H](O[C@H]2C[C@@](C)(OC)[C@@H](O)[C@H](C)O2)[C@H](C)[C@@H](O[C@@H]2O[C@H](C)C[C@H](N(C)C)[C@H]2O)[C@](C)(OC)C[C@@H](C)C(=O)[C@H](C)[C@@H](O)[C@]1(C)O [CLARITHROMYCIN] | 256 (≈ 342 µM) | 256 (≈ 342 µM) | 16 (≈ 21.4 µM) |  |  | 16 (≈ 21.4 µM) |  | Active | inactive | 0.6 | Active | Active | 1 | Active |
